{
  "source": "patent US20100120700A1",
  "about": "“METHODS AND COMPOSITIONS FOR TREATING CERVICAL CANCER” (priority 2000, published 2010)",
  "key": {"human PDZ domains": {"tested_on": "human PDZ domains", "experiment": "G assay, E6 PL peptides against PDZ domain panel", "settings": "value names the PDZ domain(s) that saturated binding with the E6 peptide; signal classes (A450 nm 3-4 or 4)", "procedure": "(1) A PDZ-domain polypeptide is bound to a surface, e.g. a protein binding surface. In a preferred embodiment, a GST/PDZ fusion protein containing one or more PDZ domains is bound to a polystyrene 96-well plate. […] In one embodiment, the GST/PDZ fusion protein is bound via an anti-GST antibody that is coated onto the 96-well plate. Adequate binding to the plate can be achieved when: • a. 100 uL per well of 5 ug/mL goat anti-GST polyclonal antibody (Pierce) in PBS is added to a polystyrene 96-well plate (e.g., Num Polysorb) at 4° C. for 12 hours. • b. The plate is blocked by addition of 200 uL per well of PBS/BSA for 2 hours at 4° C. • c. The plate is washed 3 times with PBS. • d. […]\n(3) The binding of the biotinylated peptide to the GST/PDZ fusion protein surface can be detected using a variety of methods and detectors known to one of skill in the art. […] The reaction of the HRP and its substrate is terminated by addition of 100 uL per well of 1M sulfuric acid, and the absorbance of each well of the plate is read at 450 nm.\n(4) Specific binding of a PL peptide and a PDZ domain polypeptide is determined by comparing the signal from the well(s) in which the PL peptide and PDZ domain polypeptide are combined, with the background signal(s). […]"}, "TIP1": {"biological_target": "T1, TIP1 (Homo sapiens, UniProt O14907)", "T1 construct": "made in house; host or cells: E. coli (DH5alpha, BL21 or JM109)", "T1 sequence (O14907 14-116)": "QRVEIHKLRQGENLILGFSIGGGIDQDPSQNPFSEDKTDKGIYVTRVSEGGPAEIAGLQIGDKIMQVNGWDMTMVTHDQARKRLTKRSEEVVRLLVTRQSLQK", "experiment": "G assay peptide titration (EC50)", "assay_type": "binding", "settings": "E6 peptide titrated against constant GST-PDZ", "quoted_text": "(4) For each concentration of peptide, the net binding signal is determined by subtracting the binding of the peptide to GST alone from the binding of the peptide to the GST/PDZ fusion protein. […]\nRelative binding affinities for the 14 most significant interactions with different PDZ domains were determined by E6 peptide titrations."}, "Magi3 (PDZ1)": {"biological_target": "Magi3 (PDZ1) (Homo sapiens, UniProt Q5TCQ9)", "sequence (Q5TCQ9 401-502)": "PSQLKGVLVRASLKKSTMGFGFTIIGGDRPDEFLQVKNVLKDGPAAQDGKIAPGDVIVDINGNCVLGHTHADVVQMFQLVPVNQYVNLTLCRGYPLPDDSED", "settings": "E6 peptide titrated against constant GST-PDZ; Magi3 (1)", "procedure": "(§1) (1) A GST/PDZ fusion protein, as well as GST alone as a negative control, are bound to a surface (e.g., a 96-well plate) and the surface blocked and washed as described supra for the “G” assay.\n(§2) (2) 50 uL per well of a solution of biotinylated PL peptide (e.g. as shown in TABLE 2) is added to the surface in increasing concentrations in PBS/BSA (e.g. at 0.1 uM, 0.33 uM, 1 uM, 3.3 uM, 10 uM, 33 uM, and 100 uM). In one embodiment, the PL peptide is allowed to react with the bound GST/PDZ fusion protein (as well as the GST alone negative control) for 10 minutes at 4° C. followed by 20 minutes at 25° C. The plate is washed 3 times with ice cold PBS to remove unbound labeled peptide.\n(§3) (3) The binding of the PL peptide to the immobilized PDZ-domain polypeptide is detected as described supra for the “G” assay.\n(§4) (4) For each concentration of peptide, the net binding signal is determined by subtracting the binding of the peptide to GST alone from the binding of the peptide to the GST/PDZ fusion protein. The net binding signal is then plotted as a function of ligand concentration and the plot is fit (e.g. by using the Kaleidagraph software package curve fitting algorithm; Synergy Software) to the following equation, where “Signal[ligand]” is the net binding signal at PL peptide concentration “[ligand],” “Kd” is the apparent affinity of the binding event, and “Saturation Binding” is a constant determined by the curve fitting algorithm to optimize the fit to the experimental data: […]"}, "VARTUL": {"tested_on": "VARTUL", "settings": "E6 peptide titrated against constant GST-PDZ", "procedure": "as §1, §2, §3, §4"}, "PSD95 (PDZ1-3)": {"biological_target": "PSD95 (PDZ1-3) (Homo sapiens, UniProt P78352)", "settings": "E6 peptide titrated against constant GST-PDZ; PSD95 (1-3)", "procedure": "as §1, §2, §3, §4"}, "Magi1C (PDZ2)": {"biological_target": "Magi1C (PDZ2) (Homo sapiens, UniProt Q96QZ7)", "sequence (Q96QZ7 463-566)": "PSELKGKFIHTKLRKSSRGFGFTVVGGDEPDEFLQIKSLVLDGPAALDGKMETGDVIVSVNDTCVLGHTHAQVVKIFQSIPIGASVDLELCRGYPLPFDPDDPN", "settings": "E6 peptide titrated against constant GST-PDZ; Table 10 prints Magi1C (1)", "procedure": "as §1, §2, §3, §4"}, "SAST1 KIAA": {"tested_on": "SAST1 KIAA", "settings": "E6 peptide titrated against constant GST-PDZ", "procedure": "as §1, §2, §3, §4"}, "PSD95 (PDZ2)": {"biological_target": "PSD95 (PDZ2) (Homo sapiens, UniProt P78352)", "settings": "E6 peptide titrated against constant GST-PDZ; PSD95 (2)", "procedure": "as §1, §2, §3, §4"}, "DLG3 (PDZ1-2)": {"biological_target": "DLG3 (PDZ1-2) (Homo sapiens, UniProt Q92796)", "sequence (Q92796 129-315 limits assumed)": "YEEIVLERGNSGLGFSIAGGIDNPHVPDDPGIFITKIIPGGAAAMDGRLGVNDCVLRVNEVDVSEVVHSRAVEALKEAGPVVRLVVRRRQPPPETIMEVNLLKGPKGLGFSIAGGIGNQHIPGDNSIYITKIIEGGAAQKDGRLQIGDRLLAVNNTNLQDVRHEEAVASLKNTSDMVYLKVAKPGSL", "settings": "E6 peptide titrated against constant GST-PDZ; DLG3 (1-2)", "procedure": "as §1, §2, §3, §4"}},
  "note": "“Also recorded” adds a separate entry of the source.",
  "data": [
    {"substance": "20 mer peptide corresponding to the C-terminus of HPV16 E6 (PDZ ligand), biotinylated in binding assays; ends SSRTRRETQL (SEQ ID NO: 13) [HPV E6 #16]", "values": [
      {"measurement": "PDZ binding partner (signal 4 and 5 of 0-5)", "setting": "human PDZ domains", "result": "TIP-1; also recorded: Magi1 (PDZ #2)"},
      {"measurement": "EC50", "setting": "TIP1", "result": 0.75, "unit": "µM"},
      {"measurement": "EC50", "setting": "Magi3 (PDZ1)", "result": 0.31, "unit": "µM"},
      {"measurement": "EC50", "setting": "VARTUL", "result": 0.94, "unit": "µM"},
      {"measurement": "EC50", "setting": "PSD95 (PDZ1-3)", "result": 1, "unit": "µM"},
      {"measurement": "EC50", "setting": "Magi1C (PDZ2)", "result": 0.056, "unit": "µM"},
      {"measurement": "EC50", "setting": "SAST1 KIAA", "result": 0.58, "unit": "µM"},
      {"measurement": "EC50", "setting": "PSD95 (PDZ2)", "result": 6.8, "unit": "µM"},
      {"measurement": "EC50", "setting": "DLG3 (PDZ1-2)", "result": 3.8, "unit": "µM"}
    ]}
  ]
}
